According to patent US5502035A, “N-terminus modified analogs of LHRH” (Tap Holdings Inc., priority 1994, dated 1996):
Non-standard residues stand in square brackets, D forms with d. Residues, ends and D or L forms follow the SMILES beside them. *: point of attachment. Shikimoyl = O=C(C1=C[C@@H](O)[C@@H](O)[C@H](O)C1)*; dPhe(4-Cl) = N[C@H](Cc1ccc(Cl)cc1)C(=O)O; d2Nal = N[C@H](Cc1ccc2ccccc2c1)C(=O)O; Acetyl(3-pyridyl) = O=C(Cc1cccnc1)*; Lys(iPr) = CC(C)NCCCC[C@H](N)C(=O)O; NMeY = CN[C@@H](Cc1ccc(O)cc1)C(=O)O; dCit = NC(=O)NCCC[C@@H](N)C(=O)O; d3Pal = N[C@H](Cc1cccnc1)C(=O)O; Isonicotinoyl = O=C(c1ccncc1)*; Nicotinoyl = O=C(c1cccnc1)*; X1 = O=C([C@@H]1CCCO1)*

Biological target: T1, LHRH (Rattus norvegicus, UniProt P30969)
T1 construct: endogenous in cells; host or cells: rat pituitary cells (own knowledge of the cited Haviv 1989 method)
T1 sequence (P30969 1-327): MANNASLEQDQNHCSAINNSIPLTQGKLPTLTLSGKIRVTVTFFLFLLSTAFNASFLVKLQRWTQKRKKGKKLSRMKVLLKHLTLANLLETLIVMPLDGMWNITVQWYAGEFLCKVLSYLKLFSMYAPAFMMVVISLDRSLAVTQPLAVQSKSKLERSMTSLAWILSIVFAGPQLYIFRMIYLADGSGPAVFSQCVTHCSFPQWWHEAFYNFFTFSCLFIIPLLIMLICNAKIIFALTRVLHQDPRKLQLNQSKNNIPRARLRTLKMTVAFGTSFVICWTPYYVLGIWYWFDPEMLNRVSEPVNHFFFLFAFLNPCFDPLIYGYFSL
Assay: in vitro test for LHRH antagonist potency (pA2)
Format: cell-based
Conditions: negative logarithm of the antagonist concentration required to shift the response curve produced by the agonist leuprolide to two-fold higher concentration
How it was run: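 Rat LHRH receptor in vitro functional test; pA2 = negative log of the antagonist concentration shifting the leuprolide agonist response curve to two-fold higher concentration.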

Structure (SMILES)	Kb
CC(C)C[C@H](NC(=O)[C@@H](CCCCNC(=O)c1cccnc1)NC(=O)[C@H](Cc1ccc(O)cc1)N(C)C(=O)[C@H](CO)NC(=O)[C@@H](Cc1cccnc1)NC(=O)[C@@H](Cc1ccc(Cl)cc1)NC(=O)[C@@H](Cc1ccc2ccccc2c1)NC(=O)c1ccncc1)C(=O)N[C@@H](CCCCNC(C)C)C(=O)N1CCC[C@H]1C(=O)N[C@H](C)C(N)=O [Example 72g, N-Isonicotinyl-D2Nal-D4ClPhe-D3Pal-Ser-NMeTyr-DLys(Nic)-Leu-Lys(Isp)-Pro-DAlaNH2] (Isonicotinoyl-[d2Nal][dPhe(4-Cl)][d3Pal]S[NMeY][dK](Nicotinoyl)L[Lys(iPr)]P[dA]-NH2)	0.02 nM
CC(C)C[C@H](NC(=O)[C@@H](CCCCNC(=O)c1cccnc1)NC(=O)[C@H](Cc1ccc(O)cc1)N(C)C(=O)[C@H](CO)NC(=O)[C@@H](Cc1cccnc1)NC(=O)[C@@H](Cc1ccc(Cl)cc1)NC(=O)[C@@H](Cc1ccc2ccccc2c1)NC(=O)Cc1cccnc1)C(=O)N[C@@H](CCCCNC(C)C)C(=O)N1CCC[C@H]1C(=O)N[C@H](C)C(N)=O [Example 72h, N-(3-Pyridylacetyl)-D2Nal-D4ClPhe-D3Pal-Ser-NMeTyr-DLys(Nic)-Leu-Lys(Isp)- Pro-DAlaNH2] ({Acetyl(3-pyridyl)}-[d2Nal][dPhe(4-Cl)][d3Pal]S[NMeY][dK](Nicotinoyl)L[Lys(iPr)]P[dA]-NH2)	0.00631 nM
CC(C)C[C@H](NC(=O)[C@@H](CCCCNC(=O)c1cccnc1)NC(=O)[C@H](CCCCNC(=O)c1cccnc1)NC(=O)[C@H](CO)NC(=O)[C@@H](Cc1cccnc1)NC(=O)[C@@H](Cc1ccc(Cl)cc1)NC(=O)[C@@H](Cc1ccc2ccccc2c1)NC(=O)C1=C[C@@H](O)[C@@H](O)[C@H](O)C1)C(=O)N[C@@H](CCCCNC(C)C)C(=O)N1CCC[C@H]1C(=O)N[C@H](C)C(N)=O [Example 73, N-Shikimyl-D2Nal-D4ClPhe-D3Pal-Ser-Lys(Nic)-DLys(Nic)-Leu-Lys(Isp)-Pro-DAlaNH2] (Shikimoyl-[d2Nal][dPhe(4-Cl)][d3Pal]SK(Nicotinoyl)[dK](Nicotinoyl)L[Lys(iPr)]P[dA]-NH2)	0.0447 nM
CC(C)C[C@H](NC(=O)[C@@H](CCCCNC(=O)c1cccnc1)NC(=O)[C@H](CCCCNC(=O)c1cccnc1)NC(=O)[C@H](CO)NC(=O)[C@@H](Cc1cccnc1)NC(=O)[C@@H](Cc1ccc(Cl)cc1)NC(=O)[C@@H](Cc1ccc2ccccc2c1)NC(=O)c1cccnc1)C(=O)N[C@@H](CCCCNC(C)C)C(=O)N1CCC[C@H]1C(=O)N[C@H](C)C(N)=O [Example 74, N-Nicotinyl-D2Nal-D4ClPhe-D3Pal-Ser-Lys(Nic)-DLys(Nic)-Leu-Lys(Isp)-Pro-DAlaNH2] (Nicotinoyl-[d2Nal][dPhe(4-Cl)][d3Pal]SK(Nicotinoyl)[dK](Nicotinoyl)L[Lys(iPr)]P[dA]-NH2)	0.0562 nM
CC(C)C[C@H](NC(=O)[C@@H](CCCCNC(=O)c1cccnc1)NC(=O)[C@H](Cc1ccc(O)cc1)NC(=O)[C@H](CO)NC(=O)[C@@H](Cc1cccnc1)NC(=O)[C@@H](Cc1ccc(Cl)cc1)NC(=O)[C@@H](Cc1ccc2ccccc2c1)NC(=O)C1=C[C@@H](O)[C@@H](O)[C@H](O)C1)C(=O)N[C@@H](CCCCNC(C)C)C(=O)N1CCC[C@H]1C(=O)N[C@H](C)C(N)=O [Example 75, N-Shikimyl-D2Nal-D4ClPhe-D3Pal-Ser-Tyr-DLys(Nic)-Leu-Lys(Isp)-Pro-DAlaNH2] (Shikimoyl-[d2Nal][dPhe(4-Cl)][d3Pal]SY[dK](Nicotinoyl)L[Lys(iPr)]P[dA]-NH2)	0.0112 nM
CC(C)C[C@H](NC(=O)[C@@H](CCCNC(N)=O)NC(=O)[C@H](Cc1ccc(O)cc1)N(C)C(=O)[C@H](CO)NC(=O)[C@@H](Cc1cccnc1)NC(=O)[C@@H](Cc1ccc(Cl)cc1)NC(=O)[C@@H](Cc1ccc2ccccc2c1)NC(=O)[C@@H]1CCCO1)C(=O)N[C@@H](CCCNC(=N)N)C(=O)N1CCC[C@H]1C(=O)N[C@H](C)C(N)=O [Example 76, N-(S)-Tetrahydofur-2-oyl-D2Nal-D4ClPhe-D3Pal-Ser-NMeTyr-DCit-Leu-Arg-Pro-DAlaNH2] (X1-[d2Nal][dPhe(4-Cl)][d3Pal]S[NMeY][dCit]LRP[dA]-NH2)	0.0355 nM
